Series [1] relates to Mycobacterium tuberculosis. The series can be described thus: Antitubercular activity against Mycobacterium tuberculosis H37Rv after 4 weeks. It counts as functional. The settings on record: 672 h.
Series [2] is described as follows: Cytotoxicity against african green monkey Vero cells after 24 hrs by MTS assay. It counts as cell-based. To be noted: chlorocebus sabaeus. (In general: Tetrazolium assays rely on reduction of a dye to a coloured formazan, in cell work by metabolically active cells.)
The nature of series [3]: Cytotoxicity against mouse MBMDMphi cells after 48 hrs by MTS assay. The class given is cell-based.
Series [4] deals with Mycobacterium tuberculosis. In words: Ratio of ethambutol MIC to compound MIC for Mycobacterium tuberculosis H37Rv after 4 weeks. It counts as functional.

In brackets after ≈: the same amount, converted by molar mass. Several values for one entry are separate records, joined by “and”; a condition that tells them apart may be missing. Equal values may be shown once.

On to `CC(C)(C)n1nnnc1C(c1ccccc1)N1CCN(C2=NC(=O)/C(=C/c3ccccc3)S2)CC1` (centres undefined), for which the MIC – broadly, the lowest concentration found to suppress growth – in series [1] was greater than 12.5 µg/mL.
Turning to `CC(C)(C)n1nnnc1C(c1ccccc1F)N1CCN(C2=NC(=O)/C(=C/c3ccccc3)S2)CC1` (centres undefined), the MIC in series [1] is 6.25 µg/mL and 12.3 µM. Besides, the CC50 (as a rule, the concentration giving 50% cytotoxicity) at 24 h in series [2] was greater than 100 µM. This compound came in with a CC50 at 48 h in series [3] greater than 100 µM.
As for `CC(C)(C)n1nnnc1C(c1ccc(F)cc1)N1CCN(C2=NC(=O)/C(=C/c3ccccc3)S2)CC1` (centres undefined), the MIC in series [1] was 1.56 µg/mL and 3.08 µM. In series [2], this compound displayed a CC50 at 24 h greater than 100 µM. In addition, the CC50 at 48 h in series [3] is greater than 100 µM. In series [4], the Ratio was found to be 3.
With `CC(C)(C)n1nnnc1C(c1ccccc1Cl)N1CCN(C2=NC(=O)/C(=C/c3ccccc3)S2)CC1` (centres undefined), in series [1], the MIC is 12.5 µg/mL and 23.9 µM. Further, the CC50 at 24 h in series [2] was greater than 100 µM. Moreover, in series [3], the CC50 at 48 h was greater than 100 µM.
In the case of `CC(C)(C)n1nnnc1C(c1ccc(Cl)cc1)N1CCN(C2=NC(=O)/C(=C/c3ccccc3)S2)CC1` (centres undefined), the MIC in series [1] was 6.25 µg/mL and 11.9 µM. The same compound displayed a CC50 at 24 h in series [2] greater than 100 µM. The compound further displayed a CC50 at 48 h in series [3] greater than 100 µM.
On to `CC(C)c1ccc(C(c2nnnn2C(C)(C)C)N2CCN(C3=NC(=O)/C(=C/c4ccccc4)S3)CC2)cc1` (centres undefined), for which the MIC in series [1] is greater than 12.5 µg/mL. Moreover, the CC50 at 24 h in series [2] was greater than 100 µM. Also, the CC50 at 48 h in series [3] is greater than 100 µM.
On to `COc1ccc(C(c2nnnn2C(C)(C)C)N2CCN(C3=NC(=O)/C(=C/c4ccccc4)S3)CC2)cc1` (centres undefined), for which, in series [1], the MIC was 1.56 µg/mL and 3.01 µM. Also, the CC50 at 24 h in series [2] is greater than 100 µM. In series [3], this compound had a CC50 at 48 h greater than 100 µM. Besides, the Ratio in series [4] came to 3.
For `COc1ccc(C(c2nnnn2C(C)(C)C)N2CCN(C3=NC(=O)/C(=C/c4ccccc4)S3)CC2)cc1OC` (centres undefined), the MIC in series [1] was 6.25 µg/mL and 11.4 µM. This compound also registered a CC50 at 24 h in series [2] greater than 100 µM. In addition, the CC50 at 48 h in series [3] was greater than 100 µM.
Regarding `COc1cc(C(c2nnnn2C(C)(C)C)N2CCN(C3=NC(=O)/C(=C/c4ccccc4)S3)CC2)cc(OC)c1OC` (centres undefined), the MIC in series [1] is 6.25 µg/mL and 10.8 µM. The CC50 at 24 h in series [2] is greater than 100 µM. Also, the CC50 at 48 h in series [3] was greater than 100 µM.
As to `CC(C)(C)n1nnnc1C(c1ccncc1)N1CCN(C2=NC(=O)/C(=C/c3ccccc3)S2)CC1` (centres undefined), the MIC in series [1] was 6.25 µg/mL and 12.8 µM.
On to `CC(C)(C)n1nnnc1C(c1cccnc1)N1CCN(C2=NC(=O)/C(=C/c3ccccc3)S2)CC1` (centres undefined), for which, in series [1], the MIC is 6.25 µg/mL and 12.8 µM. Also, the CC50 at 24 h in series [2] was greater than 100 µM. In series [3], this compound displayed a CC50 at 48 h greater than 100 µM.
Regarding `CC(C)(C)n1nnnc1C(c1ccoc1)N1CCN(C2=NC(=O)/C(=C/c3ccccc3)S2)CC1` (centres undefined), the MIC in series [1] is 6.25 µg/mL and 13.1 µM. This compound had a CC50 at 24 h in series [2] greater than 100 µM. The compound also returned a CC50 at 48 h in series [3] of 45.9 µM.
With `O=C1N=C(N2CCN(C(c3ccccc3)c3nnnn3C3CCCCC3)CC2)S/C1=C\c1ccccc1` (centres undefined), in series [1], the MIC is 6.25 µg/mL and 12.1 µM. In series [2], this compound showed a CC50 at 24 h greater than 100 µM. Also, the CC50 at 48 h in series [3] was greater than 100 µM.
In the case of `O=C1N=C(N2CCN(C(c3ccccc3F)c3nnnn3C3CCCCC3)CC2)S/C1=C\c1ccccc1` (centres undefined), in series [1], the MIC came out at 12.5 µg/mL (≈ 23.5 µM).
As for `O=C1N=C(N2CCN(C(c3ccc(F)cc3)c3nnnn3C3CCCCC3)CC2)S/C1=C\c1ccccc1` (centres undefined), in series [1], the MIC was 6.25 µg/mL and 11.7 µM. This compound registered a CC50 at 24 h in series [2] greater than 100 µM. Besides, the 50% cytotoxic concentration (CC50) at 48 h in series [3] was greater than 100 µM.
`O=C1N=C(N2CCN(C(c3ccccc3Cl)c3nnnn3C3CCCCC3)CC2)S/C1=C\c1ccccc1` (centres undefined): the MIC in series [1] is 6.25 µg/mL and 11.4 µM. In series [2], this compound had a CC50 at 24 h greater than 100 µM. This compound registered a CC50 at 48 h in series [3] greater than 100 µM.
As to `O=C1N=C(N2CCN(C(c3ccc(Cl)cc3)c3nnnn3C3CCCCC3)CC2)S/C1=C\c1ccccc1` (centres undefined), the MIC in series [1] was 12.5 µg/mL and 22.8 µM.
Turning to `CC(C)c1ccc(C(c2nnnn2C2CCCCC2)N2CCN(C3=NC(=O)/C(=C/c4ccccc4)S3)CC2)cc1` (centres undefined), in series [1], the MIC is 6.25 µg/mL and 11.2 µM. Further, the CC50 at 24 h in series [2] was greater than 100 µM. This compound registered a CC50 at 48 h in series [3] greater than 100 µM.
As to `COc1ccc(C(c2nnnn2C2CCCCC2)N2CCN(C3=NC(=O)/C(=C/c4ccccc4)S3)CC2)cc1` (centres undefined), the MIC in series [1] is 6.25 µg/mL and 11.5 µM.
Same read-out and setting: then `COc1ccc(C(c2nnnn2C2CCCCC2)N2CCN(C3=NC(=O)/C(=C/c4ccccc4)S3)CC2)cc1OC` (centres undefined), with 6.25 µg/mL and 10.9 µM.
In the case of `COc1cc(C(c2nnnn2C2CCCCC2)N2CCN(C3=NC(=O)/C(=C/c4ccccc4)S3)CC2)cc(OC)c1OC` (centres undefined), the MIC in series [1] is 6.25 µg/mL and 10.3 µM. The CC50 at 24 h in series [2] is greater than 100 µM. For the same compound, the half-maximal cytotoxic concentration (CC50) at 48 h in series [3] is greater than 100 µM.
Turning to `O=C1N=C(N2CCN(C(c3ccncc3)c3nnnn3C3CCCCC3)CC2)S/C1=C\c1ccccc1` (centres undefined), the MIC in series [1] was 6.25 µg/mL and 12.1 µM.
The same measure, in the same setting: then `O=C1N=C(N2CCN(C(c3cccnc3)c3nnnn3C3CCCCC3)CC2)S/C1=C\c1ccccc1` (centres undefined), with 6.25 µg/mL and 12.1 µM; and `O=C1N=C(N2CCN(C(c3ccoc3)c3nnnn3C3CCCCC3)CC2)S/C1=C\c1ccccc1` (centres undefined), with 6.25 µg/mL and 12.4 µM.
On the same count and under the same terms, then `CC[C@@H](CO)NCCN[C@@H](CC)CO` [ETHAMBUTOL], with 2 µg/mL and 9.78 µM; and `NNC(=O)c1ccncc1` [ISONIAZID], with 0.02 µg/mL and 0.14 µM.
Same read-out and setting: next, `NC(=O)c1cnccn1` [PYRAZINAMIDE]: 12.5 µg/mL and 102 µM.
